US5310745A, “Antiviral compounds” (priority 1992, dated 1994)

Key:
Type in all cases: cell-based
visna virus = experiment: Plaque reduction assay, inhibition of visna virus in vitro; design: key to Antiviral Activity: A: active compound; I: inactive compound; settings: for Antiviral Activity: Table 1; for inhibition at 1 µM / inhibition at 10 µM / inhibition at 100 µM / inhibition at 1000 µM: Visna-maedi virus; for inhibition at 1 µM: 0.001 mM; for inhibition at 1 µM / inhibition at 10 µM / inhibition at 100 µM / inhibition at 1000 µM / % Plaque Reduction: Table 2
Excerpt: Visna virus, a lentivirus genetically very similar to the AIDS virus, is pathogenic for sheep and goats. See Sonigo et al., Cell 42, 369-382 (1985); Haase, Nature 322, 130-136 (1986). Inhibition of visna virus replication in vitro as a useful model for human immunodeficiency virus (HIV) and its inhibition by test compounds has been described by Franket al., Antimicrobial Agents and Chemotherapy 31 (9), 1369-1374 (1987). The N-butyl derivative of 1,5-dideoxy-1,5-imino-D-glucitol, also referred to as n-butyl-deoxynojirimycin (N-Bu-DNJ), was used as a control standard for comparison with various novel compounds of this invention.
Various compounds as prepared above were tested for inhibition of visna virus in vitro in a plaque reduction assay as follows:
(§1) Sheep choroid plexus (SCP) cells were obtained from American Type Culture Collection (ATCC) catalogue number CRL 1700 and were routinely passaged in vitro in Dulbecco's Modified Eagles (DME) medium supplemented with 20% fetal bovine serum (FBS). SCP cells were passaged once per week at a 1:2 or 1:3 split ratio. Visna was titrated by plaque assay in six-well plates. Virus pools were stored at -70° C.
(§2) SCP cells were cultured in 6-well plates to confluence. Wells were washed two times with serum free Minimal Essential Medium (MEM) to remove FBS. 0.2 ml of virus was added per well in MEM supplemented with 4 mM glutamine and gentamycin. After 1 hour adsorption, the virus was aspirated from each well. The appropriate concentration of each compound in 5 ml of Medium 199 (M-199) supplemented With 2% lamb serum, 4 mM glutamine, 0.5% agarose and gentamycin was added to each well. Cultures were incubated at 37° C. in a humidified 5% CO2 incubator for 3-4 weeks. To terminate the test: cultures were fixed in 10% formalin, the agar removed, the monolayers stained with 1% crystal violet and plaques counted. Each compound concentration was run in triplicate. […] 0 is no toxicity observed while 4 is total lysing of the cell monolayer.

[1] = test system: Sheep choroid plexus (SCP) cells; experiment: Toxicity of compounds in control wells without virus, graded morphologically; design: key: 0: no toxicity; 4: total cell lysates; settings: 0 to 4 scale, Table 1
Procedure: as §1, §2

[2] = test system: Sheep choroid plexus (SCP) cells; experiment: as above; settings: graded 0 to 4, Table 2
Procedure: as §1, §2

[3] = test system: Sheep choroid plexus (SCP) cells; experiment: as above; design: key: 0: no toxicity observed; 4: total lysing of the cell monolayer; settings: graded 0 to 4, Table 2
Procedure: as §1, §2

Structure (SMILES): CCCCN1C[C@H](OC(=O)C(C)C)[C@@H](OC(=O)C(C)C)[C@H](OC(=O)C(C)C)[C@H]1COC(=O)C(C)C [Example 22, 1,5-(Butylimino)-1,5-dideoxy-D-glucitol, tetraisobutyrate]
- Antiviral Activity (visna virus; 0.01 mM): A
- Antiviral Activity (visna virus; 0.1 mM): A
- Antiviral Activity (visna virus; 1.0 mM): A
- Toxicity ([1]; 0.01 mM): 0
- Toxicity ([1]; 0.1 mM): 0
- Toxicity ([1]; 1.0 mM): 0

Structure (SMILES): CCOC(=O)CC(=O)N1C[C@H](OC(C)=O)[C@@H](OC(C)=O)[C@H](OC(C)=O)[C@H]1COC(C)=O [Example 8, 1,5-(Ethylmalonylimino)-1,5-dideoxy-D-glucitol, tetraacetate]
- Antiviral Activity (visna virus; 0.1 mM): A
- Antiviral Activity (visna virus; 1.0 mM): A
- Toxicity ([1]; 0.1 mM): 0
- Toxicity ([1]; 1.0 mM): 0

Structure (SMILES): CC(=O)OC[C@@H]1[C@@H](OC(C)=O)[C@H](OC(C)=O)[C@@H](OC(C)=O)CN1C(=O)c1ccccc1 [Example 5, 1,5-(Benzoylimino)-1,5-dideoxy-D-glucitol, tetraacetate]
- Antiviral Activity (visna virus; 0.1 mM): A
- Antiviral Activity (visna virus; 0.5 mM): A
- Antiviral Activity (visna virus; 1.0 mM): A
- Toxicity ([1]; 0.1 mM): 0
- Toxicity ([1]; 0.5 mM): 0
- Toxicity ([1]; 1.0 mM): 0

Structure (SMILES): CC(=O)OC[C@@H]1[C@@H](OC(C)=O)[C@H](OC(C)=O)[C@@H](OC(C)=O)CN1C(=O)Cc1ccccc1 [Example 4, 1,5-(Phenylacetylimino)-1,5-dideoxy-D-glucitol-tetraacetate]
- Antiviral Activity (visna virus; 0.5 mM): A
- Antiviral Activity (visna virus; 1.0 mM): A
- Toxicity ([1]; 0.5 mM): 0
- Toxicity ([1]; 1.0 mM): 0

Structure (SMILES): CCCC(=O)OC[C@@H]1[C@@H](O)[C@H](OC(=O)CCC)[C@@H](OC(=O)CCC)CN1CCCCCC(F)(F)F [Example 66, 1,5-(6,6,6-Trifluorohexylimino)-1,5-dideoxy-D-glucitol, 2,3,6-tributyrate]
- inhibition at 1 µM (visna virus): -3%
- inhibition at 10 µM (visna virus; 0.01 mM): 38%
- inhibition at 100 µM (visna virus; 0.1 mM): 88%
- inhibition at 1000 µM (visna virus; 1.0 mM): 100%
- Toxicity ([2]; 0.1 mM): 1
- Toxicity ([2]; 1.0 mM): 2
- Toxicity ([3]; 0.001 mM): 0
- Toxicity ([3]; 0.01 mM): 0

Structure (SMILES): CC(=O)OC[C@@H]1[C@@H](OC(C)=O)[C@H](OC(C)=O)[C@@H](OC(C)=O)CN1C(=O)c1ccc(-c2ccccc2)cc1 [Example 53, 1,5-[([1,1'-biphenyl]-4-ylcarbonyl)imino]-1,5-dideoxy-D-glucitol, tetraacetate]
- % Plaque Reduction (visna virus; 1.0 mM): Toxic
- inhibition at 1 µM (visna virus): 28%
- inhibition at 10 µM (visna virus; 0.01 mM): 81%
- inhibition at 100 µM (visna virus; 0.1 mM): 100%
- Toxicity ([2]; 0.1 mM): 2
- Toxicity ([3]; 0.001 mM): 0
- Toxicity ([3]; 0.01 mM): 0
- Toxicity ([3]; 1.0 mM): 4

Structure (SMILES): CCCCN1C[C@H](OC(C)=O)[C@@H](OC(C)=O)[C@H](OC(C)=O)[C@H]1COC(C)=O [Example 7, 1,5-(Butylimino)-1,5-dideoxy-D-glucitol, tetraacetate]
- Antiviral Activity (visna virus; 0.1 mM): A
- Antiviral Activity (visna virus; 0.5 mM): A
- Antiviral Activity (visna virus; 1.0 mM): A
- Toxicity ([1]; 0.1 mM): 0
- Toxicity ([1]; 0.5 mM): 0
- Toxicity ([1]; 1.0 mM): 0

Structure (SMILES): CCCC(C)CN1C[C@H](OC(C)=O)[C@@H](OC(C)=O)[C@H](OC(C)=O)[C@H]1COC(C)=O (stereo partly drawn) [Example 33, 1,5-[(2-Methylpentyl)imino]-1,5-dideoxy-D-glucitol, tetraacetate]
- % Plaque Reduction (visna virus; 0.01 mM): 21%
- % Plaque Reduction (visna virus; 0.1 mM): 28%
- % Plaque Reduction (visna virus; 1.0 mM): 63%
- Toxicity ([2]; 1.0 mM): 3
- Toxicity ([3]; 0.01 mM): 0
- Toxicity ([3]; 0.1 mM): 0

Structure (SMILES): CCCCN1C[C@H](OC(=O)CCC)[C@@H](OC(=O)CCC)[C@H](O)[C@H]1CO [Example 38, 1,5-(Butylimino)-1,5-dideoxy-D-glucitol, 2,3-dibutyrate]
- % Plaque Reduction (visna virus; 1.0 mM): Toxic
- inhibition at 1 µM (visna virus): 47%
- inhibition at 10 µM (visna virus; 0.01 mM): 54%
- inhibition at 100 µM (visna virus; 0.1 mM): 80%
- Toxicity ([2]; 0.1 mM): 2
- Toxicity ([3]; 0.001 mM): 0
- Toxicity ([3]; 0.01 mM): 0
- Toxicity ([3]; 1.0 mM): 4

Structure (SMILES): CC(C)C(=O)OC[C@@H]1[C@@H](OC(=O)C(C)C)[C@H](OC(=O)C(C)C)[C@@H](OC(=O)C(C)C)CN1C(=O)Cc1ccccc1 [Example 39, 1,5-(Phenylacetylimino)-1,5-dideoxy-D-glucitol, tetraisobutyrate]
- inhibition at 10 µM (visna virus; 0.01 mM): 19%
- inhibition at 100 µM (visna virus; 0.1 mM): 56%
- inhibition at 1000 µM (visna virus; 1.0 mM): 95%
- Toxicity ([2]; 0.1 mM): 1
- Toxicity ([2]; 1.0 mM): 3
- Toxicity ([3]; 0.01 mM): 0
